# Source: patent US10064865B2, “Composition comprising phosphodiesterase type 5 inhibitor for inhibiting apoptosis of nerve cells” (ARIBIO INC., priority 2012, dated 2018)
# Columns and labels:
# [1] = test system: neuron apoptosis-operated rats; assay: Example 2 water tank task (water maze); format: in vivo, Sprague-Dawley (SD) rats
# Description: Cognitive testing was conducted using the water tank task (J Neurosci Methods. 11:47-60(1984)). On the days 14 and 28 after neuron apoptosis, the rats were given a series of 3 trials, 10 min apart in a large dark-colored tank (150 cm in diameters×50 cm in height) filled with clear water at a temperature of 22.0±1.0° C. A 15×30 cm submerged platform (2 mm below water surface) was placed in the northwest quadrant of the pool. The release point was always the southern end of the pool. The rats were lowered into the pool facing the wall and were released. The swim paths of the rats for each trials were recorded with a computer interfaced camera tracking system (Smart junior, PanLab, Spain), and the distances (m) and times (sec) taken to reach the escape platform were measured.
# All data were expressed as mean±standard deviation (S.D.) of ten rats. Multiple comparison tests for different dose groups were conducted. Variance homogeneity was examined using the Levene test (Levene A, Clin Otalary, 1981; 6:145-51). […] Statistical analyses were conducted using SPSS for Windows (Release 14K, SPSS Inc., USA; Ludbrook, Clin Exp Pharmacol Physiol, 1997; 24:294-6). In addition, the percent changes as compared with neuron apoptosis control and mirodenafil treated rats were calculated to help the understanding of the efficacy of test substances as follow Equation 6 and 7. Percentage Changes as Compared with Sham Control (%)=[((Data of neuron apoptosis control−Data of sham control rat)/Data of sham control rats)×100] [EQUATION 6] Percentage Changes as Compared with neuron apoptosis Control (%)=[((Data of test material treated rats−Data of neuron apoptosis control rats)/Data of neuron apoptosis control rats)×100] [EQUATION 7]
# PARP = assay: Example 1 immunohistochemistry: PARP-immunoreactive cells; format: in vivo, Sprague-Dawley (SD) rats; conditions: for Numbers of neurons: PARP+: 29 days after neuron apoptosis
# Description: The induction of neuron apoptosis was carried out by damaging the right hemisphere of the brain of animals. Specifically, animals were anesthetized with 2 or 3% isoflurane in the mixture of 70% N2O and 28.5% O2, and were maintained with 1 to 1.5% isoflurane in the mixture of 70% N2O and 28.5% O2. After that the temporalis muscle was bisected and reflected through an incision made midway between the eye and the eardrum canal. The proximal MCA was exposed through a subtemporal craniectomy by microdental drills without removing the zygomatic arch and without transecting the facial nerve. […] Mortality was less than 5%. For sham control, all procedures were performed in the same way, with the exception of the occlusion of the MCA.
# After deparraffinized of cerebral histological paraffin sections, citrate buffer antigen (epitope) retrieval pretreatment were conducted as previously (Shi S R et al., J Histochem Cytochem. 41:1599-604(1993)). Briefly, pre-heat water bath with staining dish containing 10 mM citrate buffers (pH 6.0) until temperature reaches 95-100° C. Immerse slides in the staining dish and place the lid loosely on the staining dish. Incubate for 20 minutes and turn off the water bath. Place the staining dish at room temperature and allow the slides to cool for 20 minutes. After epitope retrivals, sections were immunostained as following steps:
# Incubate sections with methanol and 0.3% H2O2 for 30 minutes for blocking endogenous peroxidase activity at room temperature and rinse in 0.01M phosphate buffered saline (PBS; pH 7.2) for 3 times;
# Incubate sections with normal horse serum blocking solution (Vector Lab. Inc., Burlingame, USA. Dilution 1:100) for 1 hour to block non-specific binding of immunoglobulin at room temperature in humidity chamber, and rinse in 0.01M PBS for 3 times;
# Incubate sections with primary antisera for overnight at 4° C. in humidity chamber and rinse in 0.01M PBS for 3 times;
# Incubate sections with biotinylated universal secondary antibody (Vector Lab., Dilution 1:50) for 1 hour at room temperature in humidity chamber and rinse in 0.01M PBS for 3 times;
# Incubate sections with ABC reagents (Vectastain Elite ABC Kit, Vector Lab., Dilution 1:50) for 1 hour at room temperature in humidity chamber and rinse in 0.01M PBS for 3 times;
# Incubate sections in Peroxidae substrate kit (Vector Lab.) for 5 min at room temperature and rinse in 0.01M PBS for 3 times;
# Counterstain with Mayer's hematoxylin solution and rinse in running tap water for 30 minutes;
# Dehydrate through 95% ethanol for 2 minutes, 100% ethanol for 3 times and Clear in xylene for two times; and
# Coverslip with permanent mounting medium and observed under light microscope (Nikkon, Japan).
# Histomorphometry: The nerve cells occupied by over 10% of immunoreactivities, the density, of each antiserum, caspase-3 and PARP were regarded as immunoreactive. In the present study, the numbers of each caspase-3 and PARP-immunoreactive cells among mm^2 of ipsilateral peri-infarct/defect cerebral cortex were measured using a computer-assisted image analysis program, respectively.
# All data were expressed as mean±standard deviation (S.D.) of ten rats. Multiple comparison tests for different dose groups were conducted. Variance homogeneity was examined using the Levene test (Levene A, Clin Otalary, 1981; 6:145-51). […] Statistical analyses were conducted using SPSS (Release 14K, SPSS Inc., USA; Ludbrook, Clin Exp Pharmacol Physiol, 1997; 24:294-6). In addition, the percent changes between neuron apoptosis control and mirodenafil treated rats were calculated to help the understanding of the efficacy of test material as follow equation 3. Percentage changes as compared with neuron apoptosis control (%)=[((Data of mirodenafil treated groups−Data of neuron apoptosis control)/Data of neuron apoptosis control)×100] [EQUATION 3]
# [2] = 1 mg/kg from 24 hrs after surgery
# [3] = 1 mg/kg from 72 hrs after surgery
# [4] = 1 mg/kg from 168 hrs after surgery
structure (smiles),measurement,setting,value
"CCCOc1ccc(S(=O)(=O)N2CCN(CCO)CC2)cc1-c1nc2c(CCC)cn(CC)c2c(=O)[nH]1 [Mirodenafil, mirodenafil]","mean distances to reach the escape platform at 28 days, change as compared with neuron apoptosis control",[1]; [2],−26.45%
same,"mean time to reach the escape platform at 28 days, change as compared with neuron apoptosis control",[1]; [2],−24.49%
same,"mean distances to reach the escape platform at 28 days, change as compared with neuron apoptosis control",[1]; [3],−16.05%
same,"mean time to reach the escape platform at 28 days, change as compared with neuron apoptosis control",[1]; [3],−17.33%
same,"mean distances to reach the escape platform at 28 days, change as compared with neuron apoptosis control",[1]; [4],−6.42%
same,"mean time to reach the escape platform at 28 days, change as compared with neuron apoptosis control",[1]; [4],−5.36%
same,"numbers of PARP-immunoreactive neurons, change as compared with neuron apoptosis control",PARP; 0.5 mg/kg,−37.58%
same,Numbers of neurons: PARP+,PARP; 0.5 mg/kg s.c. once a day,47.50 ± 9.44^ab cells/mm^2 of cerebral cortex
same,"numbers of PARP-immunoreactive neurons, change as compared with neuron apoptosis control",PARP; 1 mg/kg,−76.74%
same,Numbers of neurons: PARP+,PARP; 1 mg/kg s.c. once a day,17.70 ± 2.00^ab cells/mm^2 of cerebral cortex
same,"numbers of PARP-immunoreactive neurons, change as compared with neuron apoptosis control",PARP; 2 mg/kg,−78.32%
same,Numbers of neurons: PARP+,PARP; 2 mg/kg s.c. once a day,16.50 ± 3.81^ab cells/mm^2 of cerebral cortex
